Experiments:
xSirt4 [1] = test: MS-based assay of metabolite effects on xSirt4 activity; type: biochemical, Xenopus tropicalis; settings: n = 2 (Supplementary Fig. 3b)
Method: For MS and UV analyzes of deacylation reactions, samples were prepared as described for the coupled continuous assay, stopped by mixing 1:1 with 0.5% TFA after 0 and 60 min, diluted to 20 µM peptide using 0.1% FA, and analyzed by HPLC-separation using a Shimadzu Prominence UFLC (Shimadzu, Duisburg, Germany) coupled to ESI-MS and UV detection. Samples were washed on a Piccolo Proto 200 C4 5 μm 2.5 × 0.5 mm trap column (Higgins Analytical, Mountain View, California) and subsequently subjected to a Jupiter C4 5 μm 300 Å 150 × 1 mm analytical column (Phenomenex, Torrance, California) for reversed phase separation, with 99.9% H2O, 0.1% TFA as buffer A and 99.9% ACN, 0.1% TFA as buffer B. Peptides were eluted over a 20 min gradient from 1 to 55% buffer B, followed by 1 min from 55 to 90% buffer B with 70 µL min^−1 flow-rate. […] We detected in a mass range from 300 to 2500 m/z. […]
Supplementary Figure 3. […] (n=2; error bars: s.d.) e, Inner surfaces of the nucleotide binding sites of Sirt1-6, colored by electrostatic potential calculated with APBS2.1 in PyMOL using PDB IDs 4KXQ (Sirt1), 5D7O (Sirt2), 4BN4 (Sirt3), our xSirt4 structure, PDB IDs 3RIY (Sirt5) and 3K35 (Sirt6). […] The surfaces are colored according to electrostatic potential (red/-15 to blue/+15 kBT/e). f, xSirt4 surface colored by electrostatic potential calculated using APBS2.1 in PyMOL (red/-15 to blue/+15 kBT/e). […]

xSirt4 [2] = test: Thermal denaturation shift assay; type: binding, Xenopus tropicalis; settings: 3 µM xSirt4, SYPRO orange, 20 to 73 °C; n = 2
Method: Thermal shift assays were performed in 96-well PCR plates using 3 µM xSirt4 (32–315) or 3 µM zSirt4 (29–310) and SYPRO orange (Thermo Fisher, Waltham, MA, USA) covered with 15 µL mineral oil. Heating and fluorescence measurements were performed in a FluoDia T70 with 1 K steps from 20 to 73 °C (excitation: 465 nm, emission: 580 nm). The data were analyzed in GraFit (Erithacus Software Ltd, Horley, UK) by nonlinear fitting using a two state model.

Cyclophilin A (CypA) = biological target: T1, Cyclophilin A (CypA) (Homo sapiens, UniProt P62937); test: HMG-CoA modification of recombinant Cyclophilin A, intact protein MS; settings: CypA 0.4 mg/ml, 8 mM HMG-CoA, 100 mM Tris-HCl pH 8.3, 37 °C, 4 h
T1 construct: expression of a full-length CypA construct in pQE70 (Qiagen) in E. coli M15 cells; made in house; host or cells: E. coli M15
Method: The recombinant CypA was prepared through expression of a full-length CypA construct in pQE70 (Qiagen) in E. coli M15 cells and purification by ion exchange chromatography on Fractogel EMD DEAE-650(M), Fractogel TSK AF-Blue, and Fractogel SO3–650(M) (Merck Millipore)[29]. CypA protein (0.4 mg ml^−1) was modified using 8 mM HMG-CoA in 100 mM Tris-HCl buffer pH 8.3 at 37 °C for 4 h. Formation of HMG-ylated protein was confirmed by peptide-MS analyzes after tryptic digest, and by intact HMG-CypA mass analyzes through HPLC-coupled ESI-MS[56]. For intact mass determination, 25 µM HMG-CypA in 10 mM Tris/HCl pH 7.5, 50 mM NaCl was HPLC-separated with the setting described below for peptide MS, using a 30 min gradient from 1 to 55% buffer B (90% ACN, 9.9% H2O, 0.1% FA; buffer A: 5% ACN, 94.9% H2O, 0.1% FA) followed by 1 min of 55–90% buffer B with 70 µL min^−1 flow-rate. MS-analyzes were done with the settings described for peptide assays (below), except that the IntactProtein script was activated, which reduces CEM to 100. Acquired data were extracted with PeakView and deconvoluted in MassLynx in the range of 950–1500 m/z using the MaxEnt I algorithm to a resolution of 1 Da. Peak intensity values were recorded and overlaid using MassLynx.

[3] = Non-enzymatic acylation of CPS1 peptide by acyl-CoA (titration); settings: HMG-CoA titrations
hSirt4 [4] = biological target: T2, hSirt4 (Homo sapiens, UniProt Q9Y6E7); test: HMG-FdL (Fluor-de-Lys-like) de-HMG-ylation assay; type: biochemical
T2 construct: hSirt4(25–314) in pQE30 coding for an N-terminal His6-tag; His6 (N); made in house; host or cells: Escherichia coli CodonPlus(DE3)
T2 sequence (Q9Y6E7 25-314): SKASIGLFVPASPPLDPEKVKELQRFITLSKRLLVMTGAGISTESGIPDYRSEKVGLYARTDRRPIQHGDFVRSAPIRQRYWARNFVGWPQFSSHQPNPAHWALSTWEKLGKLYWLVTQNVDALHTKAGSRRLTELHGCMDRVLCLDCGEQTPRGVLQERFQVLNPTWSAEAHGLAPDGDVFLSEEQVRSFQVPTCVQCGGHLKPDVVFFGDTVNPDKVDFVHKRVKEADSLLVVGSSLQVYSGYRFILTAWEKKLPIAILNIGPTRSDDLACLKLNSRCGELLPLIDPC
Method: As a convenient and complementary, fluorescence-based alternative to the coupled enzymatic assay with HMG-peptides, we established substrate and assay corresponding to the popular “Fluor-de-Lys” (FdL) deacylation assays. […] We then employed the FdL-like Sirt4 assay for studying the effects of NAM and NADH, which are not compatible with the coupled assay. […] After 20 min, developer solution (2 mM NAM and 10 mg mL^−1 trypsin) in assay buffer was added 1:1 and samples were incubated for 45 min at room temperature. Fluorescence was measures using a FluoDia T70 with excitation wavelength 365 nm and emission wavelength 465 nm.

hSirt4 [5] = biological target: T2, hSirt4; test: Coupled continuous enzymatic assay monitoring NAM release from NAD+ (Sirt4 deacylation); type: biochemical; settings: coupled enzymatic assay; for effect on Sirt4 de-HMG-ylation activity: HMG-CPS1 peptide; for Sirt4 deacylation signal with CypA protein as substrate: increasing amounts of protein substrate, n = 2 (Fig. 1f)
Method: The seven mammalian sirtuins vary in their sequence and acyl preferences[16],[19]. […] We therefore asked whether other acyl modifications would yield deacylation efficiencies expected for a physiologically dominant Sirt4 activity.
The coupled continuous assay was performed as reported. […] Reactions were monitored in microplates at room temperature for 1 h through absorption measurements at 340 nm in a LAMBDAScan plate reader (MWG Biotech, Ebersberg, Germany).

[6] = non-enzymatic; cited from earlier work
From the text: Acetyl transferases employ acetyl-CoA for modifying proteins. However, acetyl-CoA can also non-enzymatically modify proteins, and some other acyl-CoA, such as succinyl-CoA, do so even more efficiently, likely causing the emerging variety of protein acylations[14],[28],[29],[31]. We thus analyzed whether HMG-CoA efficiently acylates peptides and proteins.

[7] = 10 and 100 μM compound, n = 2 (Fig. 4a)

T1 sequence (P62937 whole entry): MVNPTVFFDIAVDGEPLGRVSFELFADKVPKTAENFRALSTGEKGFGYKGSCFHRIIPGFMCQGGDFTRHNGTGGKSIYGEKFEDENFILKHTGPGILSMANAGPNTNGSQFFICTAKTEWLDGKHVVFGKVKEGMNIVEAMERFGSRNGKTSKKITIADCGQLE

For `O=C(O)CCCC[C@@H]1CCSS1` (racemic) [lipoic acid], the “effect on Sirt4 de-HMG-ylation activity” value (xSirt4 [1]) was “inhibits” and the “effect on Sirt4 deacetylation activity” value (xSirt4 [1]) was “inhibits”.

For `Nc1ncnc2c1ncn2[C@@H]1O[C@H](COP(=O)(O)OP(=O)(O)OC[C@H]2OC(O)[C@H](O)[C@@H]2O)[C@@H](O)[C@H]1O` (some centres unmarked) [ADPr, ADP-ribose], the “Sirt4 stabilization in thermal denaturation shift experiments” value (xSirt4 [2]) was “significant Sirt4 stabilization”.

With `CC(C)(CO[P@@](=O)(O)O[P@@](=O)(O)OC[C@H]1O[C@@H](n2cnc3c(N)ncnc32)[C@H](O)[C@@H]1OP(=O)(O)O)[C@@H](O)C(=O)NCCC(=O)NCCSC(=O)C[C@@](C)(O)CC(=O)O` [HMG-CoA] the “number of HMG-modifications on CypA” value (Cyclophilin A (CypA)) was 1–7 and the “bimolecular rate constant of CPS1 peptide acylation” value [3] was “(4.0 ± 0.8)×10^–10 μM^−1 s^−1”.

For `Cc1cc(=O)oc2cc(NC(=O)[C@H](CCCCNC(=O)CC(C)(O)CC(=O)O)NC(=O)OCc3ccccc3)ccc12` (stereo partly drawn) [HMG-FdL substrate, 5-(((S)−5-(((benzyloxy)carbonyl)amino)-6-((4-methyl-2-oxo-2H-chromen-7-yl)amino)-6-oxohexyl)amino)-3-hydroxy-3-methyl-5-oxopentanoic acid], the “acceptance as Sirt4 substrate” value (hSirt4 [4]; FdL procedure, fluorescence) was “readily accepted by Sirt4”.

With `NC(=O)c1cccnc1` [NAM, nicotinamide] the “Sirt4 stabilization in thermal denaturation shift experiments” value (xSirt4 [2]) was “no pronounced effects”.

With `O=C(Nc1ccccc1-c1cn2c(CN3CCNCC3)csc2n1)c1cnc2ccccc2n1` [SRT1720] the “effect on Sirt4 activity in HMG-FdL assay” value (hSirt4 [4]; 1 µM hSirt4, 500 µM HMG-FdL substrate, 500 µM NAD+, n = 2 (Fig. 4c)) was “no effect on Sirt4 activity” and the “effect on Sirt4 de-HMG-ylation activity” value (hSirt4 [5]; 100 μM compound, high error, effect already in control reaction (assay incompatibility)) was “weak signal decrease”.

For `CC(=O)SCCNC(=O)CCNC(=O)[C@H](O)C(C)(C)COP(=O)(O)OP(=O)(O)OC[C@H]1O[C@@H](n2cnc3c(N)ncnc32)[C@H](O)[C@@H]1OP(=O)(O)O` [acetyl-CoA], the “bimolecular rate constant k of CPS1 peptide acylation” value [6] is listed as “(1.5 ± 0.4)×10^–10 μM^−1 s^−1”.

For `Oc1ccc(/C=C/c2cc(O)cc(O)c2)cc1` [resveratrol], the “effect on Sirt4 de-HMG-ylation activity” value (hSirt4 [5]; [7]) was “no significant effect”.

With `CC(NC(=O)c1ccccc1/N=C/c1c(O)ccc2ccccc12)c1ccccc1` (centres unmarked) [sirtinol] the “effect on Sirt4 de-HMG-ylation activity” value (hSirt4 [5]; [7]) was “no significant effect”.

With “HMG-CypA: recombinant Cyclophilin A modified with HMG-CoA (1–7 HMG-modifications)” the “Sirt4 deacylation signal with CypA protein as substrate” value (hSirt4 [5]) was “strong, substrate concentration dependent signal”.

In the case of “Unmodified CypA: recombinant Cyclophilin A, untreated”, the “Sirt4 deacylation signal with CypA protein as substrate” value (hSirt4 [5]) is reported as “did not yield a significant deacylation signal”.

From publication PMC5686155, “Crystal structures of the mitochondrial deacylase Sirtuin 4 reveal isoform-specific acyl recognition and regulation features” (Nature Communications, 2017)
